Reference: ChEMBL document CHEMBL4043147, “9,19-Cycloartenol glycoside G3 from Cimicifuga simplex regulates immune responses by modulating Th17/Treg ratio” (Bioorg Med Chem, 2017)
Values belong to the compound of their own block, whether it stands above or below them. Activity calls are given as the source filed them. The calls are words filed in the database; no cut-off is given here.

Columns and labels:
[1] = Inhibition of C57BL/6 mouse CD4-positive T cell differentiation at 50 uM relative to control; assay type: functional; conditions: C57BL/6, CD4-positive T cell
[2] = Inhibition of C57BL/6 mouse CD4-positive T cell differentiation at 25 uM relative to control; assay type: functional; conditions: C57BL/6, CD4-positive T cell
[3] = Inhibition of C57BL/6 mouse CD4-positive T cell differentiation at 12.5 uM relative to control; assay type: functional; conditions: C57BL/6, CD4-positive T cell
[4] = Inhibition of C57BL/6 mouse CD4-positive T cell differentiation at 6.25 uM relative to control; assay type: functional; conditions: C57BL/6, CD4-positive T cell
[5] = Inhibition of C57BL/6 mouse CD4-positive T cell differentiation; assay type: functional, cell-based; conditions: C57BL/6, CD4-positive T cell
Splenocyte = assay: Cytotoxicity against mouse splenocytes after 48 hrs by MTT assay; assay type: cell-based
CD4-positive T cell [6] = assay: Inhibition of C57BL/6 mouse CD4-positive T cell differentiation assessed as decrease in RORgammat mRNA level 0.1 to 10 uM by real-time PCR analysis; assay type: functional, cell-based
CD4-positive T cell [7] = assay: Inhibition of C57BL/6 mouse CD4-positive T cell differentiation assessed as decrease in T-bet mRNA level 0.1 to 10 uM by real-time PCR analysis; assay type: functional, cell-based
CD4-positive T cell [8] = assay: Inhibition of C57BL/6 mouse CD4-positive T cell differentiation assessed as decrease in GATA-3 mRNA level 0.1 to 10 uM by real-time PCR analysis; assay type: functional, cell-based
CD4-positive T cell [9] = assay: Inhibition of C57BL/6 mouse CD4-positive T cell differentiation assessed as decrease in FoxP3 mRNA level 0.1 to 10 uM by real-time PCR analysis; assay type: functional, cell-based
Th17 [10] = assay: Decrease in IL-17A mRNA level in C57BL/6 mouse Th17 cells 0.1 to 10 uM by real-time PCR analysis; assay type: functional, cell-based
Treg cell [11] = assay: Increase in IL-10 mRNA level in C57BL/6 mouse Treg cells by real-time PCR analysis; assay type: functional, cell-based
Th17 [12] = assay: Reduction in IL-17A production in C57BL/6 mouse Th17 cells at 10 uM by ELISA; assay type: functional, cell-based
Th1 = assay: Reduction in IFN-gamma production in C57BL/6 mouse Th1 cells at 10 uM by ELISA; assay type: functional, cell-based
Treg cell [13] = assay: Reduction in IL-10 production in C57BL/6 mouse Treg cells at 10 uM by ELISA; assay type: functional, cell-based
Treg cell [14] = assay: Increase in IL-10 production in C57BL/6 mouse Treg cells by ELISA; assay type: functional, cell-based
[15] = target: T1, Tyrosine-protein kinase JAK1/JAK2 (Mus musculus) (UniProt P52332+Q62120); assay: Inhibition of JAK1/JAK2 in C57BL/6 mouse CD4-positive T cell assessed as reduction in IFNgamma-induced STAT1 phosphorylation at 1 to 10 uM pretreated for 1 hr followed by IFNgamma addition after 15 mins by Western blot analysis
[16] = target: T1, Tyrosine-protein kinase JAK1/JAK2 (Mus musculus); assay: Inhibition of JAK1/JAK2 in C57BL/6 mouse CD4-positive T cell assessed as reduction in IFNgamma-induced STAT3 phosphorylation at 1 to 10 uM pretreated for 1 hr followed by IFNgamma addition after 15 mins by Western blot analysis
Mus musculus [17] = species: Mus musculus; assay: Inhibition of […]/TYK2 in C57BL/6 mouse CD4-positive T cell assessed as reduction in IL-12-induced STAT1 phosphorylation at 1 to 10 uM pretreated for 1 hr followed by IL-12 addition after 30 mins by Western blot analysis
Mus musculus [18] = species: Mus musculus; assay: Inhibition of […]/TYK2 in C57BL/6 mouse CD4-positive T cell assessed as reduction in IL-12-induced STAT4 phosphorylation at 1 to 10 uM pretreated for 1 hr followed by IL-12 addition after 30 mins by Western blot analysis
[19] = target: Tyrosine-protein kinase JAK1/JAK3 (Mus musculus) (UniProt P52332+Q62137); assay: Inhibition of JAK1/JAK3 in C57BL/6 mouse CD4-positive T cell assessed as reduction in IL-4-induced STAT6 phosphorylation at 1 to 10 uM pretreated for 1 hr followed by IL-4 addition after 15 mins by Western blot analysis
Mus musculus [20] = assay: (§1) Anti-inflammatory activity in IL-23 induced mouse psoriasis-like skin inflammation model assessed as reduction in epidermal hyperplasia by measuring acanthosis at 2 to 10 uM applied topically starting 1 day prior to IL-23 induction and continuing every other day for 14 days measured after 24 hrs post last dose by hematoxylin and eosin staining based assay; assay type: functional
Mus musculus [21] = assay: as §1, with “dermal inflammatory infiltrates” for “epidermal hyperplasia by measuring acanthosis”; assay type: functional
Mus musculus [22] = assay: as §1, with “IFN-gamma mRNA levels” for “epidermal hyperplasia by measuring acanthosis”, “real-time PCR analysis” for “hematoxylin and eosin staining based assay”; assay type: functional
Mus musculus [23] = assay: as §1, with “IL-17A mRNA levels” for “epidermal hyperplasia by measuring acanthosis”, “real-time PCR analysis” for “hematoxylin and eosin staining based assay”; assay type: functional
Mus musculus [24] = assay: as §1, with “IL-22 mRNA levels” for “epidermal hyperplasia by measuring acanthosis”, “real-time PCR analysis” for “hematoxylin and eosin staining based assay”; assay type: functional
Mus musculus [25] = assay: as §1, with “IL-4 mRNA levels” for “epidermal hyperplasia by measuring acanthosis”, “real-time PCR analysis” for “hematoxylin and eosin staining based assay”; assay type: functional
Mus musculus [26] = assay: as §1, with “CXCL1 mRNA levels” for “epidermal hyperplasia by measuring acanthosis”, “real-time PCR analysis” for “hematoxylin and eosin staining based assay”; assay type: functional
Mus musculus [27] = assay: as §1, with “CCL17 mRNA levels” for “epidermal hyperplasia by measuring acanthosis”, “real-time PCR analysis” for “hematoxylin and eosin staining based assay”; assay type: functional
Mus musculus [28] = assay: as §1, with “CCL20 mRNA levels” for “epidermal hyperplasia by measuring acanthosis”, “real-time PCR analysis” for “hematoxylin and eosin staining based assay”; assay type: functional
Mus musculus [29] = assay: as §1, with “CCL27 mRNA levels” for “epidermal hyperplasia by measuring acanthosis”, “real-time PCR analysis” for “hematoxylin and eosin staining based assay”; assay type: functional
Mus musculus [30] = assay: as §1, with “CCR6 mRNA levels” for “epidermal hyperplasia by measuring acanthosis”, “real-time PCR analysis” for “hematoxylin and eosin staining based assay”; assay type: functional
Mus musculus [31] = assay: as §1, with “IL-1alpha mRNA levels” for “epidermal hyperplasia by measuring acanthosis”, “real-time PCR analysis” for “hematoxylin and eosin staining based assay”; assay type: functional
Mus musculus [32] = assay: as §1, with “IL-1beta mRNA levels” for “epidermal hyperplasia by measuring acanthosis”, “real-time PCR analysis” for “hematoxylin and eosin staining based assay”; assay type: functional
Mus musculus [33] = assay: as §1, with “IL-6 mRNA levels” for “epidermal hyperplasia by measuring acanthosis”, “real-time PCR analysis” for “hematoxylin and eosin staining based assay”; assay type: functional
Mus musculus [34] = assay: as §1, with “TNF-alpha mRNA levels” for “epidermal hyperplasia by measuring acanthosis”, “real-time PCR analysis” for “hematoxylin and eosin staining based assay”; assay type: functional
Mus musculus [35] = assay: as §1, with “COX2 mRNA levels” for “epidermal hyperplasia by measuring acanthosis”, “real-time PCR analysis” for “hematoxylin and eosin staining based assay”; assay type: functional
Mus musculus [36] = assay: as §1, with “IL-10 mRNA levels” for “epidermal hyperplasia by measuring acanthosis”, “real-time PCR analysis” for “hematoxylin and eosin staining based assay”; assay type: functional
CD4-positive T cell [37] = assay: Reduction in RORgammat/IL-17 expression in human PBMC derived allogeneic CD4-positive T cells co-cultured with […] CD14 positive monocyte derived dendritic cells at 10 uM by flow cytometric analysis; assay type: functional, cell-based
CD4-positive T cell [38] = assay: Reduction in FoxP3/IL-10 expression in human PBMC derived allogeneic CD4-positive T cells co-cultured with […] CD14 positive monocyte derived dendritic cells at 10 uM by flow cytometric analysis; assay type: functional, cell-based
CD4-positive T cell [39] = assay: Reduction in ratio of RORgammat/IL-17 expression to FoxP3/IL-10 expression in human PBMC derived allogeneic CD4-positive T cells co-cultured with […] CD14 positive monocyte derived dendritic cells at 10 uM by flow cytometric analysis; assay type: functional, cell-based

T1 sequence (P52332 whole entry, looked up): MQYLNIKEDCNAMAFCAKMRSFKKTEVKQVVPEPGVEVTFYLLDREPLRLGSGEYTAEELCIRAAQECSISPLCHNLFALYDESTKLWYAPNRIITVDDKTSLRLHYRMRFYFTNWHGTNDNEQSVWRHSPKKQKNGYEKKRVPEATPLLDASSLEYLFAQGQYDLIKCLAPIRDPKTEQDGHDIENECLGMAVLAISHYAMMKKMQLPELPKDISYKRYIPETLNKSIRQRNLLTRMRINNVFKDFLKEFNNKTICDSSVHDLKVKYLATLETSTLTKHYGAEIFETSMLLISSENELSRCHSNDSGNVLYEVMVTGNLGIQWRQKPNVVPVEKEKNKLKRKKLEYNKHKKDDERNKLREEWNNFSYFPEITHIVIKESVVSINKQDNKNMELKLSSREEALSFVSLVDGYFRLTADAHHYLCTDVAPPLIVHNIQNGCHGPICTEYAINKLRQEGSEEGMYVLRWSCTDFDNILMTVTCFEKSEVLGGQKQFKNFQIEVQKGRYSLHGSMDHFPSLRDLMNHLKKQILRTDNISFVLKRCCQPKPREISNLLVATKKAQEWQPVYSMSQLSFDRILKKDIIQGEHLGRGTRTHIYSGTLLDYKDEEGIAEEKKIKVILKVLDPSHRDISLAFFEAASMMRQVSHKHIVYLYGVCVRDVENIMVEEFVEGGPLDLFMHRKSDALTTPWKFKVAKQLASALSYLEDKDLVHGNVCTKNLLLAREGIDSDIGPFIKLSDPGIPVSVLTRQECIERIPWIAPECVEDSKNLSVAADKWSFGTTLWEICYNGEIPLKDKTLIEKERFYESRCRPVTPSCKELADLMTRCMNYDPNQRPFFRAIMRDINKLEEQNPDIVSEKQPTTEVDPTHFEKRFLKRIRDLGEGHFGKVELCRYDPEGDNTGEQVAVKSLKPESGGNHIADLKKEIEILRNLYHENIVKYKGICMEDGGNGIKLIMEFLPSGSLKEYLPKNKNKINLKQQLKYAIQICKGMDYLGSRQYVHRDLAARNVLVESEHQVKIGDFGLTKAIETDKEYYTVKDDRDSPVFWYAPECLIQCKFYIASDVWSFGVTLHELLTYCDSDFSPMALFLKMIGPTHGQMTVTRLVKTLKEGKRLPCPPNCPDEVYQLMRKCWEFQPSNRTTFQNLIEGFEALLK
T1 sequence (Q62120 whole entry, looked up): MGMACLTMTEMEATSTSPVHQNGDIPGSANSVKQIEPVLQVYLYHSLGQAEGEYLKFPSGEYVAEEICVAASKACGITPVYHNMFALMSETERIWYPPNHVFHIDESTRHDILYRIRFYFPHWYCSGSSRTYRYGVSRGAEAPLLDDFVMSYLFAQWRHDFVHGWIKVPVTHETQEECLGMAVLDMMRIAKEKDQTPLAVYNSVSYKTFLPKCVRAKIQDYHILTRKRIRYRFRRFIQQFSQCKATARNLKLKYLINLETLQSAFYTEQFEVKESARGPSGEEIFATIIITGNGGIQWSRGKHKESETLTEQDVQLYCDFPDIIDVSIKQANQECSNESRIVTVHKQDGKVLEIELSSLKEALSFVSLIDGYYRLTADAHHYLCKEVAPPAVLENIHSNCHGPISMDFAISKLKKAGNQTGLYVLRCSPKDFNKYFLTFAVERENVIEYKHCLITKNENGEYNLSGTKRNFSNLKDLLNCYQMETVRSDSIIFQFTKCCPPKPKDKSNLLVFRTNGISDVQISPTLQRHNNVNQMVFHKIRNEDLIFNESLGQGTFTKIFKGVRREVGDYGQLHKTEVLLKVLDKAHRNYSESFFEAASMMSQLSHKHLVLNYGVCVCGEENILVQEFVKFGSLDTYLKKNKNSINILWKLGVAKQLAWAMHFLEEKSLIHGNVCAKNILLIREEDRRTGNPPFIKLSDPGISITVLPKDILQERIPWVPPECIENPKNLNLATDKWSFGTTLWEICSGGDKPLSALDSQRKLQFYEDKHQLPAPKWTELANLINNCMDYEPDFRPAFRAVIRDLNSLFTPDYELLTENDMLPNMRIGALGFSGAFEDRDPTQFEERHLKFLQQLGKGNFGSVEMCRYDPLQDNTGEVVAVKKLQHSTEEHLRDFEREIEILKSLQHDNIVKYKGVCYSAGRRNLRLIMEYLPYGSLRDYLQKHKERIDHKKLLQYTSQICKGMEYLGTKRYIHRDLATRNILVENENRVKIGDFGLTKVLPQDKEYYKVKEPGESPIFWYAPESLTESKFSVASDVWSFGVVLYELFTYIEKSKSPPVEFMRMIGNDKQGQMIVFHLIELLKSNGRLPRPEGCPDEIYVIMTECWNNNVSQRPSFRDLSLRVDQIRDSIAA
Tyrosine-protein kinase JAK1/JAK3 (Mus musculus), sequence (P52332 whole entry, looked up): as the sequence (P52332 whole entry, looked up) above
Tyrosine-protein kinase JAK1/JAK3 (Mus musculus), sequence (Q62137 whole entry, looked up): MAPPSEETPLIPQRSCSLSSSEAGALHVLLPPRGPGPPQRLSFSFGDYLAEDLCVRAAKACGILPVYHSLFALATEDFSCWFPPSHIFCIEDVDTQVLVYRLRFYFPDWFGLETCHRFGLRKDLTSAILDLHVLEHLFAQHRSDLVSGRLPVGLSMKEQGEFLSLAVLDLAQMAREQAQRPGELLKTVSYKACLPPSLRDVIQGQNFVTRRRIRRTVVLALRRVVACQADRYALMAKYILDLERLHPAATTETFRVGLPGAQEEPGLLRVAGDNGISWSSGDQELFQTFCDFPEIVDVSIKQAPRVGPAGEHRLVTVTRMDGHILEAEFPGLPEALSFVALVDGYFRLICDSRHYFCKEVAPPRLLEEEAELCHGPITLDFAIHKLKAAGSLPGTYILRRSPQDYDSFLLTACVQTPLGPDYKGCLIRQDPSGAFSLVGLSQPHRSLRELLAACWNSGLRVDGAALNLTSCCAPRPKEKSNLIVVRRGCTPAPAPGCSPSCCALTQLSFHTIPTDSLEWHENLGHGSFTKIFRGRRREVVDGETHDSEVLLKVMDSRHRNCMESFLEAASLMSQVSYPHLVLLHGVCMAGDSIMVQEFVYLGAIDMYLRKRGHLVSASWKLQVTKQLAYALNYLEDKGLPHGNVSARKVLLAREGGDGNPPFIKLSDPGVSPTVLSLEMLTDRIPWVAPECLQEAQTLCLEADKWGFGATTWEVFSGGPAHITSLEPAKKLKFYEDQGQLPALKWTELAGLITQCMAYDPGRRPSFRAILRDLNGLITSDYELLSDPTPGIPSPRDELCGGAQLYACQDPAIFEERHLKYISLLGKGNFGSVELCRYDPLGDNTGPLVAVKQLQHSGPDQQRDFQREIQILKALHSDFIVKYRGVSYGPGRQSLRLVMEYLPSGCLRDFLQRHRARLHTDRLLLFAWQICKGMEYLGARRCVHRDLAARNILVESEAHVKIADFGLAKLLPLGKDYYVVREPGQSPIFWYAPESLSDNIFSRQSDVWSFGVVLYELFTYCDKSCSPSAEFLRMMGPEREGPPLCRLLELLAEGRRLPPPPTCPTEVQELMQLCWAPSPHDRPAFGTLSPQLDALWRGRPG

IC50 [5]: 14.3 µM
SMILES: CC(=O)O[C@@H]1C[C@@]23C[C@@]24CC[C@H](O[C@@H]2O[C@H](CO)[C@H](O)[C@H](O)[C@H]2O)C(C)(C)[C@@H]4CC=C3[C@]2(C)C[C@@]3(O)O[C@H](C(=O)[C@H]4OC4(C)C)[C@@H](C)[C@@H]3[C@@]12C
inhibition at 50 µM [1]: 98.6% | inhibition at 25 µM [2]: 68.3% | inhibition at 12.5 µM [3]: 52.4% | inhibition at 6.25 µM [4]: 8.9%

IC50 [5]: 14.6 µM
SMILES: CC(=O)O[C@H]([C@H]1C[C@@H](C)C2=C(O1)[C@@H](O)[C@@]1(C)[C@@H]3CC[C@H]4C(C)(C)[C@@H](O[C@@H]5O[C@H](CO)[C@H](O)[C@H](O)[C@H]5O)CC[C@@]45C[C@@]35CC[C@]21C)C(C)(C)O
inhibition at 50 µM [1]: 96.8% | inhibition at 25 µM [2]: 68.3% | inhibition at 12.5 µM [3]: 21.3% | inhibition at 6.25 µM [4]: 10.2%

IC50 [5]: 17.6 µM
SMILES: CC(=O)O[C@@H]1C[C@@]23C[C@@]24CC[C@H](O[C@@H]2OC[C@@H](O)[C@H](O)[C@H]2O)C(C)(C)[C@@H]4CC=C3[C@]2(C)C[C@]3(O)O[C@H](C(=O)[C@@H]4OC4(C)C)[C@@H](C)[C@@H]3[C@@]12C
inhibition at 50 µM [1]: 99.1% | inhibition at 25 µM [2]: 82.6% | inhibition at 12.5 µM [3]: 24.6% | inhibition at 6.25 µM [4]: 5.3%

The next lines start with the compound.

SMILES: CC(=O)O[C@H]([C@H]1C[C@@H](C)C2=C(O1)[C@@H](O)[C@@]1(C)C3=CC[C@H]4C(C)(C)[C@@H](O[C@@H]5O[C@H](CO)[C@H](O)[C@H](O)[C@H]5O)CC[C@@]45C[C@@]35CC[C@]21C)C(C)(C)O
inhibition at 50 µM [1]: 96.6% | inhibition at 25 µM [2]: 92.1% | inhibition at 12.5 µM [3]: 54.3% | inhibition at 6.25 µM [4]: 21.6% | IC50 [5]: 12.6 µM

SMILES: CC(=O)O[C@@H]1C[C@@]23C[C@@]24CC[C@H](O[C@@H]2O[C@H](CO)[C@H](O)[C@H](O)[C@H]2O)C(C)(C)[C@@H]4CC[C@H]3[C@]2(C)C[C@]3(O)O[C@H](C(=O)[C@@H]4OC4(C)C)[C@@H](C)[C@@H]3[C@@]12C
CC50 (Splenocyte): 88.8 µM | inhibition at 50 µM [1]: 98.3% | inhibition at 25 µM [2]: 93.6% | inhibition at 12.5 µM [3]: 59.6% | inhibition at 6.25 µM [4]: 29.6% | IC50 [5]: 8.69 µM | inhibition (CD4-positive T cell [6]): Active | inhibition (CD4-positive T cell [7]): Active | inhibition (CD4-positive T cell [8]): Active | inhibition (CD4-positive T cell [9]): inactive | Activity (Th17 [10]): Active | Activity (Treg cell [11]): Dose-dependent effect | Activity (Th17 [12]): Active | Activity (Th1): Active | Activity (Treg cell [13]): Active | Activity (Treg cell [14]): Dose-dependent effect | inhibition [15]: Active | inhibition [16]: Active | inhibition (Mus musculus [17]): Active | inhibition (Mus musculus [18]): Active | inhibition [19]: Active | Activity (Mus musculus [20]): Active | Activity (Mus musculus [21]): Active | Activity (Mus musculus [22]): Active | Activity (Mus musculus [23]): Active | Activity (Mus musculus [24]): Active | Activity (Mus musculus [25]): Active | Activity (Mus musculus [26]): Active | Activity (Mus musculus [27]): Active | Activity (Mus musculus [28]): Active | Activity (Mus musculus [29]): Active | Activity (Mus musculus [30]): Active | Activity (Mus musculus [31]): Active | Activity (Mus musculus [32]): Active | Activity (Mus musculus [33]): Active | Activity (Mus musculus [34]): Active | Activity (Mus musculus [35]): Active | Activity (Mus musculus [36]): inactive | Activity (CD4-positive T cell [37]): Active | Activity (CD4-positive T cell [38]): Active | Activity (CD4-positive T cell [39]): Active

SMILES: C[C@@H]1C[C@H]([C@@H](O)C(C)(C)O)O[C@]2(O)[C@@H](O)[C@@]3(C)C4=CC[C@H]5C(C)(C)[C@@H](O[C@@H]6O[C@H](CO)[C@H](O)[C@H](O)[C@H]6O)CC[C@@]56C[C@@]46CC[C@]3(C)[C@@H]12
inhibition at 50 µM [1]: 99.6% | inhibition at 25 µM [2]: 74.1% | inhibition at 12.5 µM [3]: 51.5% | inhibition at 6.25 µM [4]: 10.3% | IC50 [5]: 18.3 µM
